Reference: paper PMC10743883, “Identification and Functional Analysis of an Epsilon Class Glutathione S-Transferase Gene Associated with α-Pinene Adaptation in Monochamus alternatus” (International Journal of Molecular Sciences, 2023)

Tested on: MaGSTe3
Experiment: GSH conjugation, absorbance at […] nm, Michaelis-Menten fit
Assay type: biochemical, Monochamus alternatus
Settings: co-substrate GSH (concentration not given); 100 mM PBS; CDNB varied, printed range 0–400 mM

`O=[N+]([O-])c1ccc(Cl)c([N+](=O)[O-])c1` [1-chloro-2,4-dinitrobenzene] showed a Km of 1.24 ± 0.21 mM.
